In PubChem BioAssay (NCI):
“And” between values parts separate entries of the source, which are not always exact repeats. Identical values can stand only once.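 Cells were grown in 96-well plates and exposed to each compound for 48 hours at five concentrations; endpoints were interpolated linearly between bracketing concentrations, or set to the highest concentration if not reached. The concentration for 50% growth inhibition is given as GI50. Definition used: TGI = concentration required for complete inhibition of growth.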

Legend:
Test in all cases: NCI tumour cell line growth inhibition, 48 h
BT-549 breast = test system: BT-549 breast
SK-MEL-28 melanoma = test system: SK-MEL-28 melanoma
TK-10 renal = test system: TK-10 renal
U251 CNS = test system: U251 CNS
NCI-H522 lung = test system: NCI-H522 lung
HS 578T breast = test system: HS 578T breast
NCI-H23 lung = test system: NCI-H23 lung
HOP-62 NSCLC = test system: HOP-62 NSCLC
SF-295 CNS = test system: SF-295 CNS
MDA-MB-231 breast = test system: MDA-MB-231 breast

Compound | GI50 (BT-549 breast) [µM] | TGI (BT-549 breast) [µM] | GI50 (SK-MEL-28 melanoma) | TGI (SK-MEL-28 melanoma) | GI50 (TK-10 renal) [µM] | TGI (TK-10 renal) [µM] | GI50 (U251 CNS) [µM] | TGI (U251 CNS) [µM] | GI50 (NCI-H522 lung) [µM] | TGI (NCI-H522 lung) [µM] | GI50 (HS 578T breast) [µM] | TGI (HS 578T breast) [µM] | GI50 (NCI-H23 lung) [µM] | TGI (NCI-H23 lung) [µM] | GI50 (HOP-62 NSCLC) [µM] | TGI (HOP-62 NSCLC) [µM] | GI50 (SF-295 CNS) [µM] | TGI (SF-295 CNS) [µM] | GI50 (MDA-MB-231 breast) [µM] | TGI (MDA-MB-231 breast) [µM]
O=c1oc2ccc(Br)cc2c(=O)n1-c1ccc(F)cc1F | 1.79 | 5.5 | 1.04 µM | 5.8 µM | 4.53 | 19.2 | 2.51 | 31.5 | 2.6 | 14.9 | 2.11 | 8.01 | 2.55 | 10.1 | 2.45 | 8.3 | 1.88 | 3.71 | 2.11 | 6.96
O=[N+]([O-])c1ccc(CSCc2ccc(Cl)cc2)cc1 | – | > 100 | – | > 100 µM | – | > 100 | – | > 100 | – | > 100 | – | > 100 | – | > 100 | – | > 100 | – | > 100 | – | > 100
O=C(CSC(c1ccccc1)c1ccccc1)N/N=C/c1ccco1 | 1.69 | 2.78 | 20.8 µM | 50.7 µM | 2.21 | 7.62 | 1.77 | 3.21 | 1.4 | 4.49 | 2.23 | 5.82 | 1.6 | 4.46 | 1.84 | 3.84 | 2.4 | 12.5 | 1.35 | 2.87
COC(=O)c1cc(/C=C/c2ccc(S(N)(=O)=O)cc2)ccc1O | 16.3 | 56.2 | 95.5 µM | > 100 µM | 28.1 | > 100 | 18.8 | > 100 | 20.2 | 69.6 | 29.7 | 72.1 | > 100 | > 100 | 41.7 | > 100 | 26.5 | > 100 | 24.9 | 60.5
O=C(N/N=C/c1c(Cl)cccc1Cl)c1ccc(C(F)(F)F)nc1Nc1cccc(C(F)(F)F)c1 | 2.6 | 9 | 1.82 µM | > 37.5 µM | 2.87 | > 91.4 | 0.588 | 12.8 | 1.76 | > 33.6 | 1.75 | 18 | 1.42 | > 21.8 | 1.29 | 14.4 | 1.16 | > 29.2 | 1.51 | 11.1
Cn1c(=O)c2c(ncn2CC(=O)Nc2ccc(-c3ccccc3)nn2)n(C)c1=O | > 100 | > 100 | > 100 µM | > 100 µM | > 100 | > 100 | > 100 | > 100 | > 100 | > 100 | > 100 | > 100 | > 100 | > 100 | > 100 | > 100 | > 100 | > 100 | 23.1 | > 100
Cc1cc(C)n(-c2nnc3n2N=C(c2ccc(-c4ccccc4)cc2)CS3)n1 | 3.69 | > 100 | 3.33 µM | > 100 µM | 2.47 | 42.2 | 3.4 | > 100 | 2.95 | 12.9 | 2.76 | > 100 | 4.79 | > 100 | 6.17 | > 100 | 2.64 | 7.63 | 3.22 | > 100
COc1ccc2c3c(Nc4ccc(/C(C)=N/O)cc4)[nH]c4ccccc4c-3c(N=O)c2c1 | 3.98 | 23.1 | 27 µM | 50.6 µM | 5.05 | 71.7 | 2.31 | 12.9 | 18.9 | 41.9 | 7.04 | 37 | 4.59 | 18.2 | 11.6 | 30.9 | 9.11 | 38.9 | 4.8 | 24.3
COc1ccc2c(Oc3ccc(NC(=O)c4c(C)n(CC(C)(C)O)n(-c5ccccc5)c4=O)nc3)ccnc2c1 | 22.7 | > 66 | 22.3 µM | > 100 µM | 5.92 | 19.8 | 13.1 | > 100 | 6.84 | 26.7 | 21.1 | > 100 | 18.4 | > 100 | 27.8 | > 100 | 0.654 | 12.7 | 8.92 | > 93.5
COC(C(=O)[C@@H](O)[C@@H](C)O)[C@@H]1Cc2cc3cc(O[C@H]4C[C@@H](O[C@H]5C[C@@H](O)[C@H](O)C(C)O5)[C@H](O)C(C)O4)c(C)c(O)c3c(O)c2C(=O)[C@H]1O[C@H]1C[C@@H](O[C@H]2C[C@@H](O[C@H]3C[C@@H](O)[C@H](OC)C(C)O3)[C@@H](O)C(C)O2)[C@H](O)C(C)O1 (stereo partly drawn) | 0.0219 | 0.258 | 0.00946 µM | 0.0647 µM | – | 0.322 | – | > 33.3 | 0.0101 | 0.0569 | 0.019 | > 33.3 | 0.0184 | 0.234 | 0.0151 | 0.717 | 0.0141 | > 33.3 | 0.0691 | > 33.3
O=C(OCc1ccc2c(Cl)cc(Cl)c(O)c2n1)N1CCN(C(=O)c2cc3cc(F)ccc3[nH]2)CC1 | 1.17 | > 24 | 87 µM | > 100 µM | 99.5 | > 100 | 2.55 | > 100 | 0.303 | > 100 | 1.13 | > 100 | 2.25 | > 100 | 1.31 | > 100 | 9.49 | > 100 | 1.07 | > 55.6
C/C(=N\NC(=S)N1CC2CCC(CC2)C1)c1ccccn1 | 0.135 | 1.84 | 0.767 µM | 2.93 µM | 0.405 | 1.78 | 0.0473 | 1.19 | 0.195 | 1.27 | 0.226 | 3.87 | 0.0179 | 3.34 | 0.142 | 1.69 | 0.178 | 2.08 | 0.156 | 2.45
CC(C)C1=C2CCC3(C)C(CCC4C5C6OCC5(CCC6(C)C)CCC43C)C2(C)CC1 (stereo not drawn) | – | 52.2 | – | 32.8 µM | – | 31 | – | 37 | – | 36.5 | – | 51.3 | – | 54.5 | – | 38.9 | – | 34.5 | – | 37.3
O=C(N/N=C/c1ccc([N+](=O)[O-])o1)c1ccc(O)cc1 | 10.7 | 28 | 14.7 µM | > 100 µM | > 100 | > 100 | 5.17 | > 100 | 6.59 | 26.7 | 21.7 | > 100 | 2.97 | 11.4 | 6.2 | > 100 | 4.26 | > 100 | 10.8 | > 100
CCCCCCCCCCCCOC1C(C(CC(=O)NCCN2CCCC2)NS(=O)(=O)c2cc(Cl)cc(Cl)c2)OC2OC(C)(C)OC21 (stereo not drawn) | 1.79 | 3.24 | 1.94 µM and 1.59 µM | 3.55 µM and 3.1 µM | 2 | 3.82 | 1.92 | 3.58 | 2.11 | 3.98 | 2.23 | 4.16 | 2.21 | 4.76 | 1.74 | 3.39 | 1.9 | 4.69 | 1.81 | 3.23
